# Measured values: patent US20240252454A1, “COMPOSITION COMPRISING AN INHIBITOR OF MITOCHONDRIAL TRANSCRIPTION” (LEAD DISCOVERY CENTER GMBH, priority 2021, published 2024)
# Test system: A2780
# Experiment: CellTiter-GLO (CTG) assay, combinatorial matrix
# Type: cell-based
smiles,measurement,setting,value
O=C(c1cc(Cc2n[nH]c(=O)c3ccccc23)ccc1F)N1CCN(C(=O)C2CC2)CC1 [Olaparib],combination of IMT and PARPi compared to treatment with just the PARPi alone,"A2780, CTG matrix, 30 μM to 10 nM IMT (3S)-1-[(2R)-2-[4-(2-chloro-4-fluoro-phenyl)-2-oxo-chromen-7-yl]oxypropanoyl]piperidine-3-carboxylic acid + 30 μM to 40 nM of the labelled PARPi",advantage of the combination
same,activity at 0.04 µM,"Homo sapiens, A2780, 72 hours, Olaparib 0.04 μM, IMT (3S)-1-[(2R)-2-[4-(2-chloro-4-fluoro-phenyl)-2-oxo-chromen-7-yl]oxypropanoyl]piperidine-3-carboxylic acid at the μM of c0, untreated control =100%, read-out: Measured residual activity (cellular ATP content)",99%
same,activity at 0.1 µM,"Homo sapiens, A2780, 72 hours, Olaparib 0.1 μM, IMT (3S)-1-[(2R)-2-[4-(2-chloro-4-fluoro-phenyl)-2-oxo-chromen-7-yl]oxypropanoyl]piperidine-3-carboxylic acid at the μM of c0, untreated control =100%, read-out: Measured residual activity (cellular ATP content)",85%
same,activity at 0.4 µM,"Homo sapiens, A2780, 72 hours, Olaparib 0.4 μM, IMT (3S)-1-[(2R)-2-[4-(2-chloro-4-fluoro-phenyl)-2-oxo-chromen-7-yl]oxypropanoyl]piperidine-3-carboxylic acid at the μM of c0, untreated control =100%, read-out: Measured residual activity (cellular ATP content)",46%
same,activity at 1.1 µM,"Homo sapiens, A2780, 72 hours, Olaparib 1.1 μM, IMT (3S)-1-[(2R)-2-[4-(2-chloro-4-fluoro-phenyl)-2-oxo-chromen-7-yl]oxypropanoyl]piperidine-3-carboxylic acid at the μM of c0, untreated control =100%, read-out: Measured residual activity (cellular ATP content)",27%
same,activity at […],"Homo sapiens, A2780, 72 hours, Olaparib 3.3 μM, IMT (3S)-1-[(2R)-2-[4-(2-chloro-4-fluoro-phenyl)-2-oxo-chromen-7-yl]oxypropanoyl]piperidine-3-carboxylic acid at the μM of c0, untreated control =100%, read-out: Measured residual activity (cellular ATP content)",14%
same,activity at 10 µM,"Homo sapiens, A2780, 72 hours, Olaparib 10 μM, IMT (3S)-1-[(2R)-2-[4-(2-chloro-4-fluoro-phenyl)-2-oxo-chromen-7-yl]oxypropanoyl]piperidine-3-carboxylic acid at the μM of c0, untreated control =100%, read-out: Measured residual activity (cellular ATP content)",1%
same,activity at 30 µM,"Homo sapiens, A2780, 72 hours, Olaparib 30 μM, IMT (3S)-1-[(2R)-2-[4-(2-chloro-4-fluoro-phenyl)-2-oxo-chromen-7-yl]oxypropanoyl]piperidine-3-carboxylic acid at the μM of c0, untreated control =100%, read-out: Measured residual activity (cellular ATP content)",0%
